Patent publication US20160009693A1, “HERBICIDAL COMPOUNDS” (SYNGENTA LIMITED, priority 2013, published 2016)

How the values were obtained:
Type in all cases: in vivo
Conditions in all cases: applied at 1000 g/h, evaluated after 13 days
[1] = tested on: Amaranthus retoflexus (AMARE); experiment: Herbicidal glasshouse test, post-emergence, AMARE
Description: (§1) Seeds of a variety of test species are sown in standard soil in pots (Alopecurus myosuroides (ALOMY), Setaria faberi (SETFA), Echinochloa crus-galli (ECHCG), Solanum nigrum (SOLNI), Amaranthus retoflexus (AMARE), Ipomoea hederacea (IPOHE)). After cultivation for one day (pre-emergence) or after 8 days cultivation (post-emergence) under controlled conditions in a glasshouse (at 24/16° C., day/night; 14 hours light; 65% humidity), the plants are sprayed with an aqueous spray solution derived from the formulation of the technical active ingredient in acetone / water (50:50) solution containing 0.5% Tween 20 (polyoxyethelyene sorbitan monolaurate, CAS RN 9005-64-5). […] The test plants are then grown in a glasshouse under controlled conditions in a glasshouse (at 24/16° C., day/night; 14 hours light; 65% humidity) and watered twice daily. After 13 days for pre and post-emergence, the test is evaluated for the percentage damage caused to the plant. The biological activities are shown in the following table on a five point scale (5=80-100%; 4=60-79%; 3=40-59%; 2=20-39%; 1=0-19%).

[2] = tested on: Ipomoea hederacea (IPOHE); experiment: Herbicidal glasshouse test, post-emergence, IPOHE
Description: as §1

[3] = tested on: Amaranthus retoflexus (AMARE); experiment: Herbicidal glasshouse test, pre-emergence, AMARE
Description: as §1

[4] = tested on: Setaria faberi (SETFA); experiment: Herbicidal glasshouse test, post-emergence, SETFA
Description: as §1

[5] = tested on: Ipomoea hederacea (IPOHE); experiment: Herbicidal glasshouse test, pre-emergence, IPOHE
Description: as §1

[6] = tested on: Echinochloa crus-galli (ECHCG); experiment: Herbicidal glasshouse test, pre-emergence, ECHCG
Description: as §1

[7] = tested on: Alopecurus myosuroides (ALOMY); experiment: Herbicidal glasshouse test, post-emergence, ALOMY
Description: as §1

[8] = tested on: Echinochloa crus-galli (ECHCG); experiment: Herbicidal glasshouse test, post-emergence, ECHCG
Description: as §1

[9] = tested on: Solanum nigrum (SOLNI); experiment: Herbicidal glasshouse test, post-emergence, SOLNI
Description: as §1

[10] = tested on: Alopecurus myosuroides (ALOMY); experiment: Herbicidal glasshouse test, pre-emergence, ALOMY
Description: as §1

[11] = tested on: Solanum nigrum (SOLNI); experiment: Herbicidal glasshouse test, pre-emergence, SOLNI
Description: as §1

[12] = tested on: Setaria faberi (SETFA); experiment: Herbicidal glasshouse test, pre-emergence, SETFA
Description: as §1

Compound | POST Application AMARE, percentage damage (five point scale) [1] | POST Application IPOHE, percentage damage (five point scale) [2] | PRE Application AMARE, percentage damage (five point scale) [3] | POST Application SETFA, percentage damage (five point scale) [4] | PRE Application IPOHE, percentage damage (five point scale) [5] | PRE Application ECHCG, percentage damage (five point scale) [6] | POST Application ALOMY, percentage damage (five point scale) [7] | POST Application ECHCG, percentage damage (five point scale) [8] | POST Application SOLNI, percentage damage (five point scale) [9] | PRE Application ALOMY, percentage damage (five point scale) [10] | PRE Application SOLNI, percentage damage (five point scale) [11] | PRE Application SETFA, percentage damage (five point scale) [12]
Cn1nnnc1NC(=O)c1nn(C)c(=O)n(Cc2ccc(F)cc2)c1=O [Compound 1.073] | 5 (5=80-100%) | 5 (5=80-100%) | 5 (5=80-100%) | 2 (2=20-39%) | 5 (5=80-100%) | 5 (5=80-100%) | 2 (2=20-39%) | 3 (3=40-59%) | 5 (5=80-100%) | 5 (5=80-100%) | 5 (5=80-100%) | 1 (1=0-19%)
Cn1nnnc1NC(=O)c1nn(C)c(=O)n(Cc2ccccc2[N+](=O)[O-])c1=O [Compound 1.060] | 5 (5=80-100%) | 5 (5=80-100%) | 5 (5=80-100%) | 5 (5=80-100%) | 5 (5=80-100%) | 5 (5=80-100%) | 5 (5=80-100%) | 5 (5=80-100%) | 5 (5=80-100%) | 5 (5=80-100%) | 5 (5=80-100%) | 5 (5=80-100%)
CCCCn1c(=O)c(C(=O)Nc2nnnn2C)cn(C)c1=O [Compound 4.004] | 5 (5=80-100%) | 4 (4=60-79%) | 5 (5=80-100%) | 1 (1=0-19%) | 2 (2=20-39%) | 1 (1=0-19%) | 1 (1=0-19%) | 1 (1=0-19%) | 5 (5=80-100%) | 1 (1=0-19%) | 2 (2=20-39%) | 1 (1=0-19%)
CC(C)CCn1c(=O)c(C(=O)Nc2nnnn2C)nn(C)c1=O [Compound 1.087] | 5 (5=80-100%) | 5 (5=80-100%) | 5 (5=80-100%) | 5 (5=80-100%) | 5 (5=80-100%) | 5 (5=80-100%) | 5 (5=80-100%) | 5 (5=80-100%) | 5 (5=80-100%) | 5 (5=80-100%) | 5 (5=80-100%) | 5 (5=80-100%)
Cn1nnnc1NC(=O)c1nn(C)c(=O)n(CCCC(F)(F)F)c1=O [Compound 1.090] | 5 (5=80-100%) | 5 (5=80-100%) | 5 (5=80-100%) | 5 (5=80-100%) | 5 (5=80-100%) | 5 (5=80-100%) | 5 (5=80-100%) | 5 (5=80-100%) | 5 (5=80-100%) | 5 (5=80-100%) | 5 (5=80-100%) | 5 (5=80-100%)
Cn1nnnc1NC(=O)c1nn(C)c(=O)n(-c2cc(F)c(F)c(F)c2)c1=O [Compound 1.044] | 5 (5=80-100%) | 5 (5=80-100%) | 5 (5=80-100%) | 5 (5=80-100%) | 5 (5=80-100%) | 5 (5=80-100%) | 5 (5=80-100%) | 5 (5=80-100%) | 5 (5=80-100%) | 5 (5=80-100%) | 5 (5=80-100%) | 5 (5=80-100%)
Cn1nnnc1NC(=O)c1nn(C)c(=O)n(Cc2ccc(C(F)(F)F)cc2)c1=O [Compound 1.057] | 5 (5=80-100%) | 5 (5=80-100%) | 5 (5=80-100%) | 1 (1=0-19%) | 4 (4=60-79%) | 5 (5=80-100%) | 5 (5=80-100%) | 4 (4=60-79%) | 5 (5=80-100%) | 5 (5=80-100%) | 3 (3=40-59%) | 1 (1=0-19%)
CCCn1nnnc1NC(=O)c1cn(C)c(=O)n(-c2cccc(F)c2)c1=O [Compound 4.005] | 5 (5=80-100%) | 5 (5=80-100%) | 4 (4=60-79%) | 1 (1=0-19%) | 4 (4=60-79%) | 2 (2=20-39%) | 3 (3=40-59%) | 2 (2=20-39%) | 5 (5=80-100%) | 1 (1=0-19%) | 5 (5=80-100%) | 1 (1=0-19%)
Cn1nnnc1NC(=O)c1nn(C)c(=O)n(-c2ccc(OC(F)(F)F)cc2)c1=O [Compound 1.039] | 5 (5=80-100%) | 5 (5=80-100%) | 5 (5=80-100%) | 5 (5=80-100%) | 5 (5=80-100%) | 5 (5=80-100%) | 5 (5=80-100%) | 5 (5=80-100%) | 5 (5=80-100%) | 5 (5=80-100%) | 5 (5=80-100%) | 5 (5=80-100%)
